Laboratory results as given in US4547488A, “Antibiotic M43D, pharmaceutical compositions and method of use” (priority 1984, dated 1985).
Converted amounts (≈) assume the structure as drawn.

What was measured:
Assay in all cases: agar-dilution MIC
Assay type in all cases: cell-based
[1] = test system: Streptococcus pyogenes C203
[2] = test system: Klebsiella pneumoniae X68
[3] = test system: Haemophilus influenzae 76
[4] = test system: Klebsiella pneumoniae KAE
[5] = test system: Streptococcus faecium ATCC 9790
[6] = test system: Haemophilus influenzae C.L.
[7] = test system: Streptococcus sp. group D 2041

`CN[C@H](CC(C)C)C(=O)N[C@H]1C(=O)N[C@@H](CC(N)=O)C(=O)N[C@H]2C(=O)N[C@H]3C(=O)N[C@H](C(=O)N[C@H](C(=O)O)c4cc(O)cc(O)c4-c4cc3ccc4O)[C@H](O)c3ccc(c(Cl)c3)Oc3cc2cc(c3O[C@@H]2O[C@H](CO)[C@@H](O)[C@H](O)[C@H]2O[C@H]2C[C@](C)(N)[C@H](O)[C@H](C)O2)Oc2ccc(cc2Cl)[C@H]1O` [Vancomycin] was tested. Which MIC [1] did it give?
The MIC was 0.5 µg/mL (≈ 0.345 µM).

And the MIC [2]?
The MIC was over 128 µg/mL.

And the MIC [3]?
The MIC was 128 µg/mL (≈ 88.3 µM).

What about the MIC [4] of the same compound?
Its MIC is over 128 µg/mL.

What about the MIC [5] of the same compound?
Its MIC is 1 µg/mL (≈ 0.69 µM).

And the MIC [6]?
Its MIC is 64 µg/mL (≈ 44.2 µM).

What about the MIC [7] of the same compound?
The MIC was 4 µg/mL (≈ 2.76 µM).
